Literature values as cited in patent US20240139350A1, “RADIOACTIVELY LABELED LIGAND FOR FIBROBLAST ACTIVATION PROTEIN-ALPHA IMAGING AGENT AND PREPARATION METHOD THEREFOR” (FIVE ELEVEN PHARMA, INC, priority 2021, published 2024).

Columns and labels:
FAP-positive tumor = details: after 24 hours, relative to FAPI-02
[1] = coordination to Ga^3+
murine FAP = molecular target: T1, murine FAP (Mus musculus, UniProt P97321); details: human embryonic kidney cells expressing mouse FAP
T1 construct: expressed in transfected cells; host or cells: human embryonic kidney cells
T1 sequence (P97321 1-761): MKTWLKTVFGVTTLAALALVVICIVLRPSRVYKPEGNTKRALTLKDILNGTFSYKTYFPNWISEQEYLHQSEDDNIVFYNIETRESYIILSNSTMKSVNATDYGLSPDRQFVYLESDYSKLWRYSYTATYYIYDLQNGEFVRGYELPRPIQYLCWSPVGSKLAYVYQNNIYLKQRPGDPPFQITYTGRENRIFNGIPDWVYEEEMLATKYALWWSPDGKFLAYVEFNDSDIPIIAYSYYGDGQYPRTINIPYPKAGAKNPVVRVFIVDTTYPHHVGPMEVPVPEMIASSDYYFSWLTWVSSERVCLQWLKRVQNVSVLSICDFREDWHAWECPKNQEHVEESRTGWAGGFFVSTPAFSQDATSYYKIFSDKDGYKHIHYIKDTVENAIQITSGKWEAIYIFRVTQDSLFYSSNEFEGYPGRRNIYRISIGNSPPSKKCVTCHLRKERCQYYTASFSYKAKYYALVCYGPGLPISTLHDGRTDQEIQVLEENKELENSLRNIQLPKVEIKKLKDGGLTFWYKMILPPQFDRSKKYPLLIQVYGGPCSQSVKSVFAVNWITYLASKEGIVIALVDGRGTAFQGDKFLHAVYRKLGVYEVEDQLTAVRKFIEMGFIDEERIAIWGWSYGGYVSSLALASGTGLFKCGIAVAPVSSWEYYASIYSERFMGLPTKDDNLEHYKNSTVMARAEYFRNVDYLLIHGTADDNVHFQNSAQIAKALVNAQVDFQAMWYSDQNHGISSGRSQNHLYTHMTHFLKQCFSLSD

[2] = molecular target: T2, dipeptidyl peptidase 4 (CD26) (Homo sapiens, UniProt P27487); details: human embryonic kidney cells transfected with CD26
T2 construct: expressed in transfected cells; host or cells: human embryonic kidney cells
T2 sequence (P27487 whole entry, species assumed): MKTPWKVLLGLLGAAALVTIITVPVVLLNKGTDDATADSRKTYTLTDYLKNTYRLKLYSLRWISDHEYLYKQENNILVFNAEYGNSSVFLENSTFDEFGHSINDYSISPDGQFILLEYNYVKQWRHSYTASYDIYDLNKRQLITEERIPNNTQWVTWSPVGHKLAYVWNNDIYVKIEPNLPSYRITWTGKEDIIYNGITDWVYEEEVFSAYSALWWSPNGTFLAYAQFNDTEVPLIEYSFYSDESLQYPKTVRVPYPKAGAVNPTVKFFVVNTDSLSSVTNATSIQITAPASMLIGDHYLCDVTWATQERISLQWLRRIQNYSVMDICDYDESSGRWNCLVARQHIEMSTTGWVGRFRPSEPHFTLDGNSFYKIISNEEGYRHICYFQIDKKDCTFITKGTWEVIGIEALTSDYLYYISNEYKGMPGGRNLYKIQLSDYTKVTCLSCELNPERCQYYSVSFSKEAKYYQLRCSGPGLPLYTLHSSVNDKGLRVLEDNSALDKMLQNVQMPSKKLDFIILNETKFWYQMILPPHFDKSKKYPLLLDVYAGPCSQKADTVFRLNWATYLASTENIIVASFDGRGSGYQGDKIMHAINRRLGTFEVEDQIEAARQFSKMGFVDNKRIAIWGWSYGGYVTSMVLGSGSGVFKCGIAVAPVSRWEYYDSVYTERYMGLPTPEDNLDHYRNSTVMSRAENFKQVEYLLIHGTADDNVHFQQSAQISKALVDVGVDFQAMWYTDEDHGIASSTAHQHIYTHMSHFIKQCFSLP

Structure (SMILES): N#C[C@@H]1CC(F)(F)CN1C(=O)CNC(=O)c1ccnc2ccc(OCCCN3CCN(C(=O)CN4CCN(CC(=O)O)CCN(CC(=O)O)CCN(CC(=O)O)CC4)CC3)cc12 (177Lu complex, metal not drawn) [FAPI-04]
- effective tumor uptake higher than FAPI-02 (FAP-positive tumor): 100%

Structure (SMILES): CC1(N(CC(=O)O)CC(=O)O)CN(CC(=O)O)CCN(CC(=O)O)C1 [AAZTA]
- thermodynamically stable constant log KML [1]: 22.18

Structure (SMILES): O=C(O)CN1CCN(CC(=O)O)CCN(CC(=O)O)CCN(CC(=O)O)CC1 [DOTA]
- thermodynamically stable constant log KML [1]: 21.3

Structure (SMILES): N#C[C@@H]1CCCN1C(=O)CNC(=O)c1ccnc2ccc(OCCCN3CCN(C(=O)CN4CCN(CC(=O)O)CCN(CC(=O)O)CCN(CC(=O)O)CC4)CC3)cc12 [FAPI-02]
- binding to murine FAP (murine FAP): strong binding

Structure (SMILES): N#C[C@@H]1CC(F)(F)CN1C(=O)CNC(=O)c1ccnc2ccc(OCCCN3CCN(C(=O)CN4CCN(CC(=O)O)CCN(CC(=O)O)CCN(CC(=O)O)CC4)CC3)cc12 [FAPI-04]
- binding to murine FAP (murine FAP): strong binding
- binding to CD26 [2]: did not bind

Structure (SMILES): O=C(O)CN1CCN(CC(=O)O)CCN(CC(=O)O)CC1 [NOTA]
- thermodynamically stable constant log KML [1]: 31.0
